From patent publication US20070185069A1, “Anti-angiogenic activity of 2-methoxyestradiol in combination with anti-cancer agents” (priority 2005, published 2007)
Several values for one entry are separate records, joined by “and”; a condition that tells them apart may be missing. Equal values may be shown once.

Assays:
[1] = tested on: RPMI-8226; experiment: RPMI-8226 xenograft model of myeloma; type: in vivo; conditions: RPMI-8226 model; Velcade, 2ME2 or both combined
[2] = tested on: H2122; experiment: H2122 tumor model, MST; type: in vivo; conditions: Paclitaxel, 2ME2 or both combined
[3] = tested on: LLC met; experiment: LLC met tumor model; type: in vivo; conditions: 2ME2 or both combined
[4] = tested on: PC3; experiment: PC3 tumor model, XRT combination; type: in vivo; conditions: 2ME2 or both combined
[5] = tested on: CT-26 syngeneic colon carcinoma; experiment: CT-26 syngeneic tumor model, subcutaneous; type: in vivo, BALB/c mice
Protocol: (§1) 2-methoxyestradiol (2ME2) is an endogenous metabolite of estradiol with antiproliferative, proapoptotic and antiangiogenic activity. […] A new formulation of 2ME2 with enhanced absorption, Panzem® NCD, is currently in clinical trials. In anticipation of Phase 2 clinical trials with Panzem® NCD, tests were conducted to assess its anti-tumor activity as either monotherapy or in combination with cytotoxic agents. In this preclinical study, the effectiveness of 2ME2 alone or with the antimetabolite, 5-Fluorouracil (5-FU) in the CT-26 syngeneic tumor model was evaluated. 5-FU is a well-recognized and commonly used antineoplastic agent used for treatment of colorectal cancer. […] Subsequent to these studies, male BALB/c mice were injected subcutaneously with 1×10^6 CT-26 cells. Starting 7 days after tumor cell inoculation when mean tumor volume was approximately 100 mm^3, cohorts of mice (n=5/group) began treatment with (a) vehicle alone; (b) 2ME@200mg/kg p.o. q.d.; (c) 5-FU 30mg/kg p.o. q.d.×5; (d) or a combination of 5-FU at 30 mg/kg p.o. q.d.×5 with 2ME2 at 50, 100, or 200 mg/kg p.o. q.d. […] Cohorts of mice receiving the combination of 5-FU and 2ME2 had oral administrations in the A.M. (5-FU) and the P.M. (2ME2).

[6] = tested on: U87 MG ectopic tumors; experiment: Late stage U87 MG glioblastoma xenograft tumor model; type: in vivo, mice; conditions: for %Δ (Percent change in tumor volume from start of treatment): U87MG model, Temodar, 2ME2 or both combined; for inhibition of tumor growth: study day 28, treatment begun at about 300 mm^3, 2ME2 400 mg/kg p.o., q.d., Temodar 42 mg/kg p.o., q.d.×5
Protocol: In a second preclinical study the effectiveness of 2ME2 alone or in combination with Temodar® in the U87 MG glioblastoma xenograft tumor model was evaluated. Given the effectiveness of Temodar® at the maximally tolerated dose against 100 mm^3 tumor burden, we altered the treatment strategy such that treatment was initiated when mean tumor volume was approximately 300 mm^3. Cohorts of mice received treatment with either vehicle control, 2ME2 400 mg/kg p.o., q.d., Temodar® 42 mg/kg p.o., q.d×5, or 2ME2 400 mg/kg p.o., q.d. combined with Temodar® 42 mg/kg p.o., q.d.×5. Mice treated with the combination of 2ME2 and Temodar® received oral administration in the PM and AM, respectively.

[7] = in vivo
Protocol: as §1

[8] = tested on: CT-26 cells; experiment: In vitro inhibition of proliferation of CT-26 cells; type: cell-based; conditions: preliminary in vitro studies
[9] = tested on: U87MG; experiment: U87MG tumor model, CPT-11 combination; type: in vivo; conditions: CPT-11, 2ME2 or both combined
[10] = target: T1, estrogen receptor α (Homo sapiens, UniProt P03372); conditions: LaVallee et al. 2002; cited from earlier work
T1 sequence (P03372 1-595): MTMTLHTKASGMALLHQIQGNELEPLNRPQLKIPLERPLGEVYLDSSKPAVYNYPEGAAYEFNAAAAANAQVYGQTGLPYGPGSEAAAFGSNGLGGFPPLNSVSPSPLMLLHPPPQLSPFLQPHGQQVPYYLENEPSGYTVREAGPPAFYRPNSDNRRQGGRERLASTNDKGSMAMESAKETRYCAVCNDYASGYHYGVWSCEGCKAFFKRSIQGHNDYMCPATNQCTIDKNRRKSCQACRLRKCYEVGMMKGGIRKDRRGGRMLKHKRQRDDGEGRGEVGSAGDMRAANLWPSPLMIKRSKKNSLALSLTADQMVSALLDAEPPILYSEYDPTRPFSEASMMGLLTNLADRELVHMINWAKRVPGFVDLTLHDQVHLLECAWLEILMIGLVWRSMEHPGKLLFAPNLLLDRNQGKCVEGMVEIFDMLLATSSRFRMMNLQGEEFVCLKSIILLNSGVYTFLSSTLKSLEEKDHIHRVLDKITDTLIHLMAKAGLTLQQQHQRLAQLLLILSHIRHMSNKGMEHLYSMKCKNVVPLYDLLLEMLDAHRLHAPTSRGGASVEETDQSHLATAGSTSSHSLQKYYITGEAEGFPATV

[11] = tested on: HUVEC; experiment: HUVEC proliferation assay (BRDU); type: cell-based; conditions: 48 hours after application of drug
Protocol: (§2) U87 MG human glioblastoma cells were maintained in vitro in DMEM supplemented with 5% FBS, 2 mM glutamine, 1 mM sodium pyruvate, MEM vitamins and NEAA at 37° C. and 5% CO2. HUVEC were maintained in M 200 media. For both HUVEC and U87 MG proliferation assays, cells were plated in a 96 well plate at 5×10^3 cells per well and incubated at 37° C. overnight. At 24 hours, the media was aspirated and 2ME2 was administered to the cells at the following doses: […]. Proliferation was assessed 48 hours after application of drug by WST-1(U87 MG) or BRDU (HUVEC).

[12] = target: estrogen receptor β (Homo sapiens, UniProt Q92731); conditions: LaVallee et al. 2002; cited from earlier work
[13] = tested on: U87 MG human glioblastoma cells; experiment: U87 MG proliferation assay (WST-1); type: cell-based; conditions: U87 MG versus HUVEC
Protocol: as §2

[14] = tested on: U87 MG ectopic tumors; experiment: Early stage U87 MG ectopic tumors, subcutaneous; type: in vivo, Balb/c SCID mice; conditions: study day 30; for inhibition of tumor growth: treatment begun at about 100 mm^3
Protocol: To assess whether 2ME2 or Temodarg® (Schering Corp. Kenilworth, N.J.) impact tumor growth of U87 MG, we designed the following experiment. Male Balb/c SCID mice were injected subcutaneously with 1×10^6 U87 MG tumor cells.

[15] = tested on: vascular endothelial cell proliferation; conditions: Ingber et al. 1990; cited from earlier work
[16] = Separate tolerability study of Temodar; design: species or system mice; conditions: mouse, in vivo, po, q.d.×5; read-out: maximally tolerated dose (MTD)
Protocol: Results: On study day 30, the mean tumor volume of the vehicle control animals was approximately 3000 mm^3. […] Using this dose and regimen in this model, Temodar® blocked U87 MG tumor growth by 98% (T/C =0.02).

[17] = CT-26 model (Table 1), 5-FU, 2ME2 or both combined

Chain of estrogen receptor β (Q92731 whole entry): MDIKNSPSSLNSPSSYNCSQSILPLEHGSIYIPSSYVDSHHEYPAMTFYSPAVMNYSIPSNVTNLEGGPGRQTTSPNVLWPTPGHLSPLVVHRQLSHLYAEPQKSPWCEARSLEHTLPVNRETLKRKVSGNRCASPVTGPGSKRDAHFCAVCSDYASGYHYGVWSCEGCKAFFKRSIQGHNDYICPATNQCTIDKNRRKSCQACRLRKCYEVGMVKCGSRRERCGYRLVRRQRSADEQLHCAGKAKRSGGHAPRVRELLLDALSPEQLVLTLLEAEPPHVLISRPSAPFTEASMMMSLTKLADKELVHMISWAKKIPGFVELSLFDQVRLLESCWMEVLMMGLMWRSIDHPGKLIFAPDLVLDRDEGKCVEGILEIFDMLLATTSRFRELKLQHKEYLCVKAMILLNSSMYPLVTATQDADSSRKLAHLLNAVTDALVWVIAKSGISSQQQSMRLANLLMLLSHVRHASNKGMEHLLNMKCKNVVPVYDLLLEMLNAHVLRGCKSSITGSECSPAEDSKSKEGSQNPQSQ

**Q.** Which T/C [1] does the source give for CC(C)C[C@H](NC(=O)[C@H](Cc1ccccc1)NC(=O)c1cnccn1)B(O)O [Velcade, reference compound] here?
**A.** Its T/C is 0.64.

**Q.** Which MST [2] does the source give for CC(=O)O[C@H]1C(=O)[C@@]2(C)[C@H]([C@H](OC(=O)c3ccccc3)[C@]3(O)C[C@H](OC(=O)[C@H](O)[C@@H](NC(=O)c4ccccc4)c4ccccc4)C(C)=C1C3(C)C)[C@]1(OC(C)=O)CO[C@@H]1C[C@@H]2O [Paclitaxel, reference compound] here?
**A.** The MST was 24 days.

**Q.** What about the T/C ([3]; Paclitaxel) of the same molecule?
**A.** The T/C was 0.38.

**Q.** With COc1cc2c(cc1O)CC[C@@H]1[C@@H]2CC[C@]2(C)[C@@H](O)CC[C@@H]12 [2ME2, 2-methoxyestradiol] as the molecule, how does the T/C [1] read?
**A.** The T/C was 0.66.

**Q.** And the “T − C (Difference in tumor doubling time)” value [4]?
**A.** The value was 0 days.

**Q.** And the T/C [5, 17]?
**A.** Its T/C is 0.37.

**Q.** And the T/C ([5]; study date 29, agent alone (2ME2 200 mg/kg p.o. q.d.; 5-FU 30 mg/kg p.o. q.d.×5))?
**A.** Its T/C is 0.79 and 0.51.

**Q.** And the “%Δ (Percent change in tumor volume from start of treatment)” value [6]?
**A.** Its value is 333%.

**Q.** What about the “inhibition of tumor growth” value [6] of the same molecule?
**A.** The value was 20%.

**Q.** And the “mean changes in body weight as a consequence of treatment” value ([7]; CT-26 bearing BALB/c mice)?
**A.** Its value is “moderate to no change”.

**Q.** What about the IC50 [8] of the same molecule?
**A.** Its IC50 is 3000 nM.

**Q.** And the MST [2]?
**A.** Its MST is 17 days.

**Q.** What about the “%Δ (Percent change in tumor volume from start of treatment)” value [9] of the same molecule?
**A.** Its value is 890%.

**Q.** What about the “affinity for estrogen receptor α” value [10] of the same molecule?
**A.** The value was “low affinity”.

**Q.** What about the T/C ([3]; Cisplatin) of the same molecule?
**A.** Its T/C is 0.37.

**Q.** And the T/C ([3]; Paclitaxel)?
**A.** The T/C was 0.37.

**Q.** What about the IC50 [11] of the same molecule?
**A.** The IC50 was 463 nM.

**Q.** And the “affinity for estrogen receptor β” value [12]?
**A.** The value was “low affinity”.

**Q.** What about the “anti-proliferative dosage on glioblastoma cells relative to dosage with antiangiogenic effect on HUVEC” value [13] of the same molecule?
**A.** The value was “nearly five times”.

**Q.** And the T/C ([14]; 2ME2 200 mg/kg p.o., q.d.)?
**A.** The T/C was 0.61.

**Q.** What about the “inhibition of tumor growth” value ([14]; 2ME2 200 mg/kg p.o., q.d.) of the same molecule?
**A.** Its value is “approximately 40%”.

**Q.** And the T/C ([14]; 2ME2 400 mg/kg p.o., q.d.)?
**A.** The T/C was 0.61.

**Q.** What about the “inhibition of tumor growth” value ([14]; 2ME2 400 mg/kg p.o., q.d.) of the same molecule?
**A.** Its value is “approximately 40%”.

**Q.** With CO[C@@H]1[C@H](OC(=O)NC(=O)CCl)CC[C@]2(CO2)[C@H]1[C@@]1(C)O[C@@H]1CC=C(C)C [AGM-1470] as the molecule, how does the “half-maximal inhibition of vascular endothelial cell proliferation at lower concentration than tumor cell proliferation” value [15] read?
**A.** The value was 4 logs.

**Q.** For O=c1[nH]cc(F)c(=O)[nH]1 [5-FU, 5-Fluorouracil], which T/C [5, 17] is on record?
**A.** Its T/C is 0.38.

**Q.** What about the MTD at 5 days ([7]; male, mouse, in vivo, po) of the same molecule?
**A.** The MTD at 5 days was 30 mg/kg.

**Q.** And the “mean changes in body weight as a consequence of treatment” value ([7]; mouse, in vivo)?
**A.** Its value is “moderate to no change”.

**Q.** With N.N.[Cl][Pt][Cl] [Cisplatin, reference compound] as the molecule, how does the T/C ([3]; Cisplatin) read?
**A.** Its T/C is 0.19.

**Q.** For Cn1nnc2c(C(N)=O)ncn2c1=O [Temodar ®, reference compound], which “%Δ (Percent change in tumor volume from start of treatment)” value [6] is on record?
**A.** Its value is 266%.

**Q.** And the “inhibition of tumor growth” value [6]?
**A.** Its value is 34%.

**Q.** And the MTD at 5 days [16]?
**A.** The MTD at 5 days was 42 mg/kg.

**Q.** What about the T/C ([14]; Temodar 42 mg/kg p.o., q.d.×5) of the same molecule?
**A.** Its T/C is 0.02.

**Q.** And the “inhibition of tumor growth” value ([14]; Temodar 42 mg/kg p.o., q.d.×5)?
**A.** The value was 98%.
